# Values quoted from earlier work, collected in patent publication US20210220357A1, “1,3-THIAZOL-2-YL SUBSTITUTED BENZAMIDES FOR THE TREATMENT OF DISEASES ASSOCIATED WITH NERVE FIBER SENSITIZATION” (Bayer Aktiengesellschaft, priority 2018, published 2021).
# System: treated subjects
# Conditions: Clinical Phase II trials, taste sensation via the tongue
structure (smiles),measurement,value
"COc1cc(C(C)C)c(Oc2cnc(N)nc2N)cc1S(N)(=O)=O [AF-219, 5-(2,4-diamino-pyrimidin-5-yloxy)-4-isopropyl-2-methoxy-benzenesulfonamide]",taste disturbances,taste disturbances
